Experimental data as given in the METLIN SMRT retention time set (Domingo-Almenara et al. 2019).

Experiment: gradient 5% acetonitrile 3 min, to 50% in 2 min, to 85% in 15 min, held 3 min, 100 µL/min
Conditions: column: Zorbax Extend-C18 2.1 x 50 mm; eluents: water / acetonitrile, 0.1% formic acid
In short: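 Pure standards were analyzed in mixtures of ~100 molecules using HPLC coupled to a quadrupole time-of-flight mass spectrometer, in both positive and negative ionization mode. Separation used a Zorbax Extend-C18 column (2.1 × 50 mm, 1.8 μm) at 100 μL/min, with water and acetonitrile each containing 0.1% formic acid. Dead and dwell volumes were 40 μL and 900 μL, and data were collected over 3 months. Retention time was read from computationally picked adduct peaks, each inspected manually.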

Row | RP-LC retention time [s] | SMILES
1 | 872 | COc1ccccc1-c1nn2c(-c3cc(C(C)C)[nH]n3)nnc2s1
2 | 967 | Cc1ccc(C)c(N2CCN(c3ccnc(SCC(=O)Nc4ccc(Cl)cc4)n3)CC2)c1
3 | 858 | COc1ccccc1-c1noc(C2CCCN2C(=O)NC2CCCCC2)n1 (centres undefined)
4 | 690 | O=C(Nc1ccc2nc3n(c(=O)c2c1)CCCC3)Nc1ccc(F)cc1F
5 | 602 | COC(=O)CCSCC(=O)Nc1nnc(C)s1
6 | 982 | CCN1C(=O)C(C)(C(=O)Nc2cccc(Cl)c2)Oc2cccnc21 (centres undefined)
7 | 712 | CNC(=O)c1sc2nc(-c3ccc(C)cc3)c(NCCOC)n2c1C
8 | 802 | CCc1cc(=O)n(CC(=O)Nc2cc(C)cc(C)c2)c(N2CCOCC2)n1
9 | 726 | COC(=O)c1ccc2c(=O)n(-c3cccc(C)c3)c(N3CCN(c4ccccn4)CC3)nc2c1
10 | 1090 | Cc1oc(-c2ccccc2)nc1Cc1noc(COc2ccccc2)n1
11 | 802 | CC1CCN(C(=O)C2CCN(S(C)(=O)=O)c3ccccc3O2)CC1 (centres undefined)
12 | 754 | Cc1cccc(CNS(=O)(=O)c2ccc3c(c2)CCCC(=O)N3)c1
13 | 1090 | COc1ccc(OC)c(-c2csc(-c3nnn(-c4ccc(F)cc4)c3N)n2)c1
14 | 922 | CCc1ccc(NC(=O)C2CCCN(c3ccc(=O)n(-c4cccc(Cl)c4)n3)C2)cc1 (centres undefined)
15 | 1030 | CCCCOc1cccc(C(=O)N(Cc2ccc(C)o2)C2CCS(=O)(=O)C2)c1 (centres undefined)
16 | 588 | Cc1cccc2c(C(=O)NC3CC3)cc(N(C)C)nc12
17 | 892 | Cc1cc(C)c(CNC(=O)C2CC(=O)N(c3cccc(NC(=O)C4CCC4)c3)C2)c(C)c1 (centres undefined)
18 | 992 | CCN(CC)C(=O)C1CCN(c2nc3ccc(-c4cccs4)nc3s2)CC1
19 | 1040 | CCc1ccc(CN2C(=O)CN(S(C)(=O)=O)CC2(C)C(=O)NC2CCCCCCC2)cc1 (centres undefined)
20 | 720 | COCCCNC(=O)N1CCCC(C)(C(=O)NCc2ccc(C)cc2)C1 (centres undefined)
21 | 1090 | O=C(CCC(=O)N1CC2CCCN2c2ccccc21)NCc1ccco1 (centres undefined)
22 | 705 | Cn1c(=O)n(C)c2cc(N3CCOCC3)c(NC(=O)NCc3cccc(F)c3)cc21

Row | RP-LC retention time [s] | SMILES
23 | 720 | Cc1ccc(Oc2ccc(NS(=O)(=O)c3ccc(F)cc3F)cc2)nn1
24 | 583 | COC(=O)c1c(NCCN2CCC(C)CC2)c2cccc(Cl)c2[nH]c1=O
25 | 795 | CCN1C(=O)c2cccnc2Sc2cc(NC(=O)C(C)(C)C)ccc21
26 | 931 | Cc1ccc(N2CCC(NC(=O)c3cccc(N(C)C)c3)C2=O)cc1 (centres undefined)
27 | 602 | Cc1nc(C)c(C(=O)N2CCC(C(=O)N3CCCCCCNC(=O)CC3)CC2)s1
28 | 735 | Cc1cccn2c(Nc3ccc4c(c3)OCCO4)c(-c3ccc(N(C)C)cc3)nc12
29 | 1110 | Cc1ccccc1-c1noc(CCc2nnc3ccc(N4CCN(c5ccc(F)cc5)CC4)nn23)n1
30 | 735 | Cc1cc(NC(=O)Cn2cnc(-c3ccc(Cl)cc3)cc2=O)no1
31 | 685 | Cc1ccn2cc(-c3ccc(NS(=O)(=O)c4ccc(C)c([N+](=O)[O-])c4)cc3)nc2n1
32 | 1080 | Cc1ccc(Cn2c(N3CCCC(C(=O)Nc4ccc(C)cc4)C3)nc3ccsc3c2=O)cc1 (centres undefined)
33 | 749 | N#Cc1cc(NC(=O)c2ccc3c(c2)OCO3)ccc1N1CC2CC(C1)c1cccc(=O)n1C2 (centres undefined)
34 | 1020 | O=C(C1CCN(S(=O)(=O)c2cc(-c3noc(C4CC4)n3)cs2)CC1)N1CCc2ccccc2C1
35 | 806 | Cc1ccc(CNC(=O)C2CCCN(C(=O)Cc3cccc4ccccc34)C2)o1 (centres undefined)
36 | 863 | CCn1c(=O)n(CC(=O)NC(C)C)c(=O)c2cnc(-c3ccccc3)nc21
37 | 786 | CC(C)CC(=O)Nc1cc2c(cc1S(=O)(=O)c1ccccc1)n(C)c(=O)n2C
38 | 784 | COC(=O)Cn1c(C)cc(=O)n2nc(-c3cccc(C)c3)nc12
39 | 884 | CCn1cc(-c2nc(CC(=O)Nc3ccc(OC)c(F)c3)cs2)c2cccnc21
40 | 719 | CCOc1ccc(NC(=O)N(C)CC2CCOCC2)cc1
41 | 707 | O=C(CCCc1nnc2c(=O)n(-c3cccc(F)c3)ccn12)NCCc1c[nH]c2ccccc12
42 | 785 | CN1C(=O)c2cccnc2Sc2cc(NC(=O)c3ccccc3Br)ccc21
43 | 953 | CN(CCc1noc(COc2ccc(F)cc2)n1)C(=O)Nc1ccc(F)c(Cl)c1
44 | 620 | CC(C)C(NC(=O)c1cccc(C#N)c1)C(=O)N1CCN(c2ccccn2)CC1 (centres undefined)

Row | RP-LC retention time [s] | SMILES
45 | 826 | O=C(c1cn2nc(Cl)ccc2n1)N1CCN(c2ccc(F)cc2)CC1
46 | 844 | O=C(NC1CCN(c2ccccc2)C1=O)c1ccc(Br)cc1 (centres undefined)
47 | 656 | Cc1noc(C)c1C1CCCN1C(=O)NC(C)C (centres undefined)
48 | 958 | COc1ccc(Cl)cc1NS(=O)(=O)c1ccc2c(c1)C(=O)N(C)c1ncccc1O2
49 | 660 | CCCN(CCC)C(=O)Cn1c(C2CCCN2C(=O)CC)nc2ccccc21 (centres undefined)
50 | 650 | Cc1nnc(SCC(=O)NCCc2ccccc2)s1
51 | 794 | Cc1ccc(-c2cc(C(=O)NCCc3ccc(S(N)(=O)=O)cc3)c(C)[nH]2)cc1C
52 | 797 | COc1ccc(Cl)cc1NC(=O)Cc1nnc(-c2ccc3ncccc3c2)o1
53 | 702 | CC(NC(=O)C1CCN(c2cnc3nccnc3c2)CC1)c1ccc(F)cc1 (centres undefined)
54 | 716 | O=C(COc1ccccc1F)NCCS(=O)(=O)N1CCN(c2ncccn2)CC1
55 | 728 | O=C(Nc1ccc2c(c1)OCCO2)N1C[C@@H]2CN(S(=O)(=O)c3ccccc3)C[C@H](C1)O2
56 | 807 | Cc1cc(C)cc(NS(=O)(=O)c2cc(-c3[nH]ncc3C(=O)N3CCCCC3)oc2C)c1
57 | 546 | COC[C@@H]1CN(c2cnccn2)C[C@H]1C(=O)NCC#N
58 | 527 | CCOc1ccc2ncc(C(=O)c3ccccc3)c(N3CCN(C)CC3)c2c1
59 | 991 | Cc1nc(-c2ccc3c(c2)CCN3C(=O)Cc2cccc(F)c2)cs1
60 | 703 | O=C(OCc1ccncc1)c1cn(-c2ccc(F)cc2)c(=O)c2ccccc12
61 | 772 | Cc1cc(Cl)ccc1S(=O)(=O)N(C)C1CCc2nn(CC3CC3)c(=O)n2CC1 (centres undefined)
62 | 742 | COc1ccc(-c2nc(N3CCCC3)c3ccccc3n2)cc1
63 | 679 | COc1ccc(NC(=O)Nc2ccc3nc(C)n(-c4ccccc4)c(=O)c3c2)cc1OC
64 | 846 | N#CCCSc1ccccc1NC(=O)c1ccc([N+](=O)[O-])s1
65 | 1370 | CCn1ccc(C(=O)N(CC2CCCO2)c2nc3c(C(C)C)cccc3s2)n1 (centres undefined)
66 | 596 | O=C(NCCN1CCCCCC1)C(=O)Nc1ccc2nc3n(c(=O)c2c1)CCCCC3

Row | RP-LC retention time [s] | SMILES
67 | 723 | COc1ccc(-n2ccn3cc(-c4ccc(OC)c(OC)c4)nc3c2=O)cc1
68 | 686 | COC(=O)C(Cc1ccccc1)NC(=O)Nc1c(-c2ccc(C)cc2)nc2ccccn12 (centres undefined)
69 | 604 | c1ccc(-c2nc(-c3ccncc3)no2)c(OC2CCNC2)c1 (centres undefined)
70 | 1130 | CCCS(=O)(=O)Nc1ccc(F)c(C(=O)c2c[nH]c3ncc(-c4ccc(Cl)cc4)cc23)c1F
71 | 1090 | Cc1cc2oc(C(=O)Nc3ccccc3[N+](=O)[O-])c(C)c2cc1C
72 | 1100 | COc1ccc(-c2nnc(-c3ccccc3Cl)o2)cc1S(=O)(=O)N1CCCCCC1
73 | 932 | COc1ccc(C(=O)Nc2nc(-c3ccc4c(c3)N(C)C(=O)C(C)O4)cs2)cc1OC (centres undefined)
74 | 836 | O=C(NC1CC1)c1ccc(OCC2CCN(C(=O)c3ccccc3C(F)(F)F)CC2)cc1
75 | 734 | CNC(=O)C1CN(C(=O)Nc2ccccc2C(F)(F)F)CC12CCCC2 (centres undefined)
76 | 949 | O=C(Nc1cccc(Cl)c1)C1CCCN1S(=O)(=O)c1cccc2nsnc12 (centres undefined)
77 | 738 | O=C(C1CC1)N1CCN(c2ccc(=O)n(-c3cccc(Cl)c3)n2)CC1
78 | 740 | O=C(CC1CCN(C(=O)Nc2ccc(F)cc2)CC1)N1CCCCC1
79 | 720 | Cc1nc2ccn(Cc3ccco3)c(=O)c2cc1C(=O)NCCc1ccco1
80 | 632 | CCCCN1CCN(C(=O)C2CCN(c3nnc(-c4ccc(C)cc4)o3)CC2)CC1
81 | 814 | Cc1cc2c(=O)n(CC(=O)NCc3ccc(F)cc3Cl)ccc2s1
82 | 800 | O=C(Nc1cccc(Cl)c1)N1CCC(n2c(-c3ccco3)nc3cccnc32)C1 (centres undefined)
83 | 557 | O=C(C1CCCN(c2cnc3nccnc3c2)C1)N1CCC(N2CCCCC2)CC1 (centres undefined)
84 | 738 | Cc1ccccc1S(=O)(=O)N1CC[C@@H]2CN(c3cnccn3)[C@@H]2C1
85 | 667 | COC(=O)[C@H](CCCN=C(N)N)NS(=O)(=O)c1ccc(C)cc1
86 | 721 | COCCN1C(=O)CCc2cc(NC(=O)c3ccc(Br)o3)ccc21
87 | 595 | Cc1cnc(C(=O)NCC2Cn3cccc3C(=O)N2C)cn1 (centres undefined)

Row | SMILES | RP-LC retention time [s]
88 | O=C(N[C@H]1CN2CCC1CC2)c1ccc(Cl)cc1 | 630
89 | CCn1ccc(C(=O)N2[C@H]3CC[C@@H]2c2cnc(C)nc2C3)n1 | 610
